We go through 14 molecules from patent publication US12454510B2, “Isophthalamide compound and use thereof” (METISA BIOTECHNOLOGY CO., LTD, priority 2019, dated 2025).

Where two headings read alike, the source gives them in different places.

Type in all cases: in vivo
The test system of one test is Plutella xylostella. Description: Insecticidal activity against Plutella xylostella, airbrush spray on cabbage leaf discs. The note with it: foliar, 72 h; for pest or weed control at 5 µg/mL: 5 mg/L, Table 5, read-out: Lethality rate (%, 3 days after the treatment) 5 mg/L. The method, then:
(§1) After being dissolved in a mixed solvent of acetone/methanol (1:1), the test compound was diluted with water containing 0.1% (wt) Tween 80 to the desired concentration.
(§2) With Leucania separata, Plutella xylostella, and Chilo suppressalis as targets, airbrush spray method was used for the determination of the insecticidal activity.
(§3) Determination method: Cabbage leaves were punched into leaf discs with a diameter of 2 cm with a puncher, and Airbrush spray treatment was carried out at a pressure of 10 psi (approximately 0.7 kg/cm^2) on the front and back sides of each leaf disc, with a spray volume of the compound to be tested of 0.5 ml. After drying in the shade, 10 of 3rd instar larvae were introduced for each treatment, and each treatment was repeated 3 times for. After the treatment, it was placed in an observation room at 25° C. and a relative humidity of 60-70%, and 3 days after the treatment, the number of surviving insects was investigated, and the mortality rate was calculated.

The test system of another test is Chilo suppressalis. The test is described as follows: Insecticidal activity against Chilo suppressalis, sprayed Oryza sativa seedlings/stalks. The note with it: for pest or weed control at 0.25 µg/mL / pest or weed control at 0.5 µg/mL / pest or weed control at 1 µg/mL: Chilo suppressalis, 72 h, 3 days after the treatment, 3rd instar larvae, read-out: lethality rate against Chilo suppressalis; for pest or weed control at 0.25 µg/mL: dose 0.25 mg/L; for pest or weed control at 0.5 µg/mL: dose 0.5 mg/L; for pest or weed control at 1 µg/mL: dose 1 mg/L. The method, then: as §1, §2
Determination method: 1) Preparation of Oryza sativa seedlings: Oryza sativa was cultivated in a constant temperature room (a temperature of 26-28V, a relative humidity of about 60-80%, and a light illumination of 16 hL:8 hD) in a small plastic cup with a diameter of 4.5 cm and a height of 4 cm, and when the Oryza sativa grew up to the 4-5 leaf stage, robust and consistent Oryza sativa seedlings were selected for chemical treatment, and 3 repetitions were performed for each treatment. 2) Preparation for test insects: Chilo suppressalis at 3rd instar larvae were raised continuously indoors. 3) The Oryza sativa stems were sprayed and insects were introduced. Spraying was performed uniformly on the whole plant of the Oryza sativa seedlings, with 15 ml of compound solution for each treatment. The blank control was treated first, and then the above operations were repeated in the order of the test concentration from low to high. After the Oryza sativa seedlings were sprayed, they were placed in a cool place to dry the liquid, and about 5 cm of stalks at the base of the stems were cut and fed to the test insects. A glass petri dish with a diameter of 90 mm was placed with filter paper at the bottom of the dish, and then was moisturized by adding water. After that, about 5 rice stalks and 10 larvae were placed in each dish, and the petri dish was sealed with a non-woven fabric and placed in a constant temperature room for cultivation. The number of remaining live insects was investigated 3 days after the treatment.

The subject of a further test is Leucania separata. Description: Insecticidal activity against Leucania separata, airbrush spray on corn leaf sections. The note with it: Mythimna separata, 72 h; dose 0.05 mg/L, 3 days after the treatment, 3rd instar larvae; read-out: lethality rate against Leucania separata. The method, then:
as §1, §2
as §3, with “Corn” for “Cabbage”, “cut” for “punched”, “into” for “into leaf discs with a diameter of”, “leaf sections,” for “with a puncher,”, “section,” for “disc,”, “times.” for “times for.”

Where [1] appears, read: dose 0.05 mg/L, 3 days after the treatment, 3rd instar larvae, read-out: lethality rate against Plutella xylostella.
Where [2] appears, read: dose 0.5 mg/L, 3 days after the treatment, 3rd instar larvae, read-out: lethality rate against Plutella xylostella.
Setting [3] is: dose 1 mg/L, 3 days after the treatment, 3rd instar larvae, read-out: lethality rate against Plutella xylostella.
The mark [4] stands for this setting: 0.05 mg/L, parallel comparison test, Table 5, read-out: Lethality rate (%, 3 days after the treatment) 0.05 mg/L.
The mark [5] stands for this setting: 0.5 mg/L, parallel comparison test, Table 5, read-out: Lethality rate (%, 3 days after the treatment) 0.5 mg/L.
The mark [6] stands for this setting: 1 mg/L, parallel comparison test, Table 5, read-out: Lethality rate (%, 3 days after the treatment) 1 mg/L.

On to `N#CCN(C(=O)c1ccc(F)nc1)c1cccc(C(=O)Nc2c(Br)cc(C(F)(C(F)(F)F)C(F)(F)F)cc2C(F)(F)F)c1F` [Compound 9], for which the pest or weed control at 0.05 µg/mL with Plutella xylostella (setting [1]) and in the test with Leucania separata was not below 90% in each case. Further, the pest or weed control at 0.5 µg/mL in the test on Plutella xylostella (setting [2]) and with Chilo suppressalis was not below 90% in each case. For the same molecule, the pest or weed control at 1 µg/mL with Plutella xylostella (setting [3]) and in the test on Chilo suppressalis was not below 90% each time. The pest or weed control at 0.25 µg/mL in the test with Chilo suppressalis was not below 90%.

`N#CCCN(C(=O)c1ccc(F)nc1)c1cccc(C(=O)Nc2c(Br)cc(C(F)(C(F)(F)F)C(F)(F)F)cc2C(F)(F)F)c1F` [Compound 10]: the pest or weed control at 0.05 µg/mL with Plutella xylostella (setting [4]) is 100%; with Plutella xylostella (setting [1]), not below 90%; in the test with Leucania separata, not below 90%. The figures for the pest or weed control at 0.5 µg/mL in the test with Plutella xylostella (setting [5]), with Plutella xylostella (setting [2]) and in the test with Chilo suppressalis were 100%, not below 90% and not below 90%, respectively. Further, the results for the pest or weed control at 1 µg/mL in the test on Plutella xylostella (setting [6]), with Plutella xylostella (setting [3]) and with Chilo suppressalis were 100%, not below 90% and not below 90%, respectively. In addition, in the test with Plutella xylostella (parallel comparison test), the pest or weed control at 5 µg/mL came out at 100%. In addition, the “Lethality rate (%, 3 days after the treatment) 0.5 mg/L” value in the test with Chilo suppressalis (0.5 mg/L, parallel comparison test, Table 6) was 100%. The “Lethality rate (%, 3 days after the treatment) 1 mg/L” value in the test on Chilo suppressalis (1 mg/L, parallel comparison test, Table 6) is 100%. Further, the “Lethality rate (%, 3 days after the treatment) 10 mg/L” value in the test on Chilo suppressalis (10 mg/L, parallel comparison test, Table 6) turned out to be 100%. Moreover, the pest or weed control at 0.25 µg/mL in the test on Chilo suppressalis was not below 90%.

On to `N#CCCCN(C(=O)c1ccc(F)nc1)c1cccc(C(=O)Nc2c(Br)cc(C(F)(C(F)(F)F)C(F)(F)F)cc2C(F)(F)F)c1F` [Compound 11], for which the pest or weed control at 0.05 µg/mL in the test on Plutella xylostella (setting [1]) and in the test on Leucania separata was not below 90% each time. The pest or weed control at 0.5 µg/mL with Plutella xylostella (setting [2]) and with Chilo suppressalis was not below 90% throughout. Also, the pest or weed control at 1 µg/mL in the test on Plutella xylostella (setting [3]) and in the test on Chilo suppressalis was not below 90% throughout. For the same molecule, the pest or weed control at 0.25 µg/mL in the test on Chilo suppressalis is not below 90%.

Regarding `N#CCCCCN(C(=O)c1ccc(F)nc1)c1cccc(C(=O)Nc2c(Br)cc(C(F)(C(F)(F)F)C(F)(F)F)cc2C(F)(F)F)c1F` [Compound 12], the pest or weed control at 0.05 µg/mL in the test with Plutella xylostella (setting [1]) and in the test on Leucania separata was not below 90% throughout. The pest or weed control at 0.5 µg/mL in the test on Plutella xylostella (setting [2]) and in the test with Chilo suppressalis was not below 90% in each case. The pest or weed control at 1 µg/mL in the test with Plutella xylostella (setting [3]) and in the test on Chilo suppressalis was not below 90% each time. Moreover, the pest or weed control at 0.25 µg/mL in the test on Chilo suppressalis was not below 90%.

As to `N#CCN(C(=O)c1ccc(F)nc1)c1cccc(C(=O)Nc2c(I)cc(C(F)(C(F)(F)F)C(F)(F)F)cc2C(F)(F)F)c1F` [Compound 13], the pest or weed control at 0.05 µg/mL in the test with Plutella xylostella (setting [1]) and in the test with Leucania separata was not below 90% each time. Moreover, the pest or weed control at 0.5 µg/mL in the test with Plutella xylostella (setting [2]) and in the test on Chilo suppressalis was not below 90% throughout. Moreover, the pest or weed control at 1 µg/mL with Plutella xylostella (setting [3]) and in the test on Chilo suppressalis was not below 90% in each case. Also, in the test with Chilo suppressalis, the pest or weed control at 0.25 µg/mL is not below 90%.

In the case of `N#CCCN(C(=O)c1ccc(F)nc1)c1cccc(C(=O)Nc2c(I)cc(C(F)(C(F)(F)F)C(F)(F)F)cc2C(F)(F)F)c1F` [Compound 14], the pest or weed control at 0.05 µg/mL with Plutella xylostella (setting [1]) and with Leucania separata was not below 90% each time. For the same molecule, the pest or weed control at 0.5 µg/mL in the test with Plutella xylostella (setting [2]) and in the test on Chilo suppressalis was not below 90% in each case. Also, the pest or weed control at 1 µg/mL in the test on Plutella xylostella (setting [3]) and in the test on Chilo suppressalis was not below 90% in each case. In addition, the pest or weed control at 0.25 µg/mL in the test with Chilo suppressalis was not below 90%.

On to `N#CCCCN(C(=O)c1ccc(F)nc1)c1cccc(C(=O)Nc2c(I)cc(C(F)(C(F)(F)F)C(F)(F)F)cc2C(F)(F)F)c1F` [Compound 15], for which the pest or weed control at 0.05 µg/mL with Plutella xylostella (setting [1]) and with Leucania separata was not below 90% each time. The pest or weed control at 0.5 µg/mL in the test on Plutella xylostella (setting [2]) and in the test on Chilo suppressalis was not below 90% throughout. Besides, the pest or weed control at 1 µg/mL with Plutella xylostella (setting [3]) and with Chilo suppressalis was not below 90% each time. Also, the pest or weed control at 0.25 µg/mL with Chilo suppressalis is not below 90%.

With `N#CCCCCN(C(=O)c1ccc(F)nc1)c1cccc(C(=O)Nc2c(I)cc(C(F)(C(F)(F)F)C(F)(F)F)cc2C(F)(F)F)c1F` [Compound 16], the pest or weed control at 0.05 µg/mL in the test with Plutella xylostella (setting [1]) and in the test on Leucania separata was not below 90% each time. Besides, the pest or weed control at 0.5 µg/mL in the test on Plutella xylostella (setting [2]) and with Chilo suppressalis was not below 90% in each case. The pest or weed control at 1 µg/mL with Plutella xylostella (setting [3]) and in the test with Chilo suppressalis was not below 90% throughout. In addition, in the test on Chilo suppressalis, the pest or weed control at 0.25 µg/mL is not below 90%.

Consider `N#CCN(C(=O)c1ccc(C(F)(F)F)nc1)c1cccc(C(=O)Nc2c(Br)cc(C(F)(C(F)(F)F)C(F)(F)F)cc2Br)c1F` [Compound 17], for which the pest or weed control at 1 µg/mL in the test with Plutella xylostella (setting [3]) and in the test with Chilo suppressalis was not below 90% throughout. The pest or weed control at 0.05 µg/mL with Leucania separata is not below 90%.

On to `N#CCN(C(=O)c1ccc(C(F)(F)F)nc1)c1cccc(C(=O)Nc2c(Br)cc(C(F)(C(F)(F)F)C(F)(F)F)cc2C(F)(F)F)c1F` [Compound 25], for which the pest or weed control at 0.5 µg/mL in the test on Plutella xylostella (setting [2]) and with Chilo suppressalis was not below 90% each time. For the same molecule, the pest or weed control at 1 µg/mL in the test with Plutella xylostella (setting [3]) and in the test on Chilo suppressalis was not below 90% in each case. In addition, the pest or weed control at 0.25 µg/mL in the test with Chilo suppressalis is not below 90%. For the same molecule, in the test on Leucania separata, the pest or weed control at 0.05 µg/mL was not below 90%.

On to `N#CCCN(C(=O)c1ccc(C(F)(F)F)nc1)c1cccc(C(=O)Nc2c(Br)cc(C(F)(C(F)(F)F)C(F)(F)F)cc2C(F)(F)F)c1F` [Compound 26], for which the pest or weed control at 0.05 µg/mL was 73.3% in the test with Plutella xylostella (setting [4]) and not below 90% in the test on Leucania separata. Also, the pest or weed control at 0.5 µg/mL was 96.7% with Plutella xylostella (setting [5]), not below 90% in the test on Plutella xylostella (setting [2]) and not below 90% in the test with Chilo suppressalis. Besides, the pest or weed control at 1 µg/mL with Plutella xylostella (setting [6]) is 100%; with Plutella xylostella (setting [3]), not below 90%; in the test on Chilo suppressalis it was not below 90%. The pest or weed control at 5 µg/mL in the test on Plutella xylostella (parallel comparison test) amounted to 100%. Besides, the pest or weed control at 0.25 µg/mL in the test with Chilo suppressalis was not below 90%.

Consider `N#CCCCCN(C(=O)c1ccc(C(F)(F)F)nc1)c1cccc(C(=O)Nc2c(Br)cc(C(F)(C(F)(F)F)C(F)(F)F)cc2C(F)(F)F)c1F` [Compound 28], for which the pest or weed control at 0.5 µg/mL in the test on Plutella xylostella (setting [2]) and with Chilo suppressalis was not below 90% each time. Further, the pest or weed control at 1 µg/mL in the test with Plutella xylostella (setting [3]) and in the test on Chilo suppressalis was not below 90% in each case. The pest or weed control at 0.05 µg/mL with Leucania separata was not below 90%.

Take `N#CCN(C(=O)c1ccc(C(F)(F)F)nc1)c1cccc(C(=O)Nc2c(I)cc(C(F)(C(F)(F)F)C(F)(F)F)cc2C(F)(F)F)c1F` [Compound 29]: the pest or weed control at 0.5 µg/mL in the test on Plutella xylostella (setting [2]) and in the test on Chilo suppressalis was not below 90% each time. Besides, the pest or weed control at 1 µg/mL in the test on Plutella xylostella (setting [3]) and in the test with Chilo suppressalis was not below 90% throughout. Further, the pest or weed control at 0.25 µg/mL with Chilo suppressalis is not below 90%. The pest or weed control at 0.05 µg/mL in the test on Leucania separata was not below 90%.

`N#CCCCCN(C(=O)c1ccc(C(F)(F)F)nc1)c1cccc(C(=O)Nc2c(I)cc(C(F)(C(F)(F)F)C(F)(F)F)cc2C(F)(F)F)c1F` [Compound 32]: the pest or weed control at 0.5 µg/mL in the test on Plutella xylostella (setting [2]) and in the test with Chilo suppressalis was not below 90% throughout. The pest or weed control at 1 µg/mL in the test on Plutella xylostella (setting [3]) and in the test on Chilo suppressalis was not below 90% in each case. In the test on Leucania separata, the pest or weed control at 0.05 µg/mL was not below 90%.
